This note sets out measurements from article PMC5772529 (Scientific Reports, 2018).

Positions of bridges follow the written chain, without caps; N, C: chain ends. Residues, ends and D or L forms follow the SMILES beside them.

Data set [1] has as its system mice. The note with it: mouse, in vivo.
The test system of data set [2] is Beagle dogs. The note with it: dog, in vivo.
The subject of data set [3] is KCNQ1.
Data set [4] relates to mice. As to conditions: mouse, in vivo. The source holds these as a separate data set.
Data set [5] concerns rats. As to conditions: rat, in vivo.
Data set [6] deals with mice. The note with it: mouse, in vivo. The source holds these as a separate data set.

For `CSCC[C@@H]1NC(=O)[C@@H]2CSSC[C@H](NC(=O)CN)C(=O)N[C@@H](CSSC[C@@H](C(N)=O)NC(=O)[C@H](CC(C)C)NC(=O)[C@H](CC(N)=O)NC(=O)[C@@H]3CCCN3C(=O)[C@H](CC(N)=O)NC(=O)[C@H](CCCCN)NC(=O)[C@H](CC(C)C)NC1=O)C(=O)N[C@@H](CO)C(=O)N[C@@H](CC(N)=O)C(=O)N1CCC[C@H]1C(=O)N[C@@H](C)C(=O)N2` [Eu1.6] (H-GCCSNPACMLKNPNLC-NH2; disulfide 2-8, 3-16), in data set [1], the morphine-like addictive symptoms entry is “did not exhibit the morphine-like addictive symptoms” and the “morphine-like dependence (naloxone-induced jumping number, weight loss)” value is reported as “did not produce morphine-like dependence”. For the same compound, in data set [2], the “effect on cardiac or respiratory function” value is given as “did not show any significant effect”; the “effect on the cardiac and respiratory function” value is given as “no significant effect”. Moreover, in data set [3], the “activity at KCNQ1 channels” value is recorded as “no activity”. Besides, in data set [4], the “effects on mice spontaneous locomotor activity” value is given as “no significant effects”; the “effects on spontaneous locomotor activity (moving distance and activity time in 6 min)” value is given as “no significant effects”. For the same compound, the “side-effects in acute tests of rats” value in data set [5] is recorded as “did not exhibit any significant side-effects”. Further, the “effect on mice motor function” value in data set [6] is reported as “did not show any significant effect”.
